# Laboratory results as given in ChEMBL document CHEMBL3414446, “Neoechinulin B and its analogues as potential entry inhibitors of influenza viruses, targeting viral hemagglutinin” (Eur J Med Chem, 2015).
# Calls of active or inactive are those of the source. The rule behind the calls is not given here.
# How the values were obtained:
# [1] = Antiviral activity against influenza A virus A/WSN/33 (H1N1) infected in MDCK cells assessed as reduction in cytopathic effect at 100 uM after 48 hrs by plaque assay; type: functional, Influenza A virus (A/WSN/1933(H1N1))
# [2] = Cytotoxicity against MDCK cells assessed as cell growth after 40 hrs by CellTiter-Glo assay; type: cell-based, Canis lupus familiaris; conditions: dog
# [3] = Antiviral activity against influenza A virus A/WSN/33 (H1N1) infected in MDCK cells assessed as reduction in cytopathic effect after 48 hrs by plaque assay; type: functional, cell-based, Influenza A virus (A/WSN/1933(H1N1))
# [4] = (§1) Antiviral activity against influenza A virus A/WSN/33 (H1N1) infected in MDCK cells assessed as inhibition of plaque formation after 3 days at 37 degC; type: functional, cell-based, Influenza A virus (A/WSN/1933(H1N1)); conditions: 72 h
# Hemagglutinin = Hemagglutinin (Influenza A virus, UniProt B4URE7); assay: Binding affinity to influenza A virus A/WSN/33 (H1N1) Hemagglutinin by surface Plasmon resonance assay; parameters: species or system Influenza A virus (A/WSN/1933(H1N1))
# [5] = target: Hemagglutinin (Influenza A virus) (UniProt B4URE7); assay: Inhibition of influenza A virus A/WSN/33 (H1N1) Hemagglutinin 1 binding to sialic acid receptor assessed as response unit at 5 ug/ml by surface plasmon resonance assay; conditions: Influenza A virus (A/WSN/1933(H1N1))
# [6] = target: Hemagglutinin (Influenza A virus) (UniProt B4URE7); assay: Inhibition of influenza A virus A/WSN/33 (H1N1) Hemagglutinin 1 binding to sialic acid receptor assessed as response unit at 0.625 ug/ml by surface plasmon resonance assay; conditions: Influenza A virus (A/WSN/1933(H1N1))
# [7] = target: Hemagglutinin (Influenza A virus) (UniProt B4URE7); assay: Inhibition of influenza A virus A/WSN/33 (H1N1) Hemagglutinin 1 binding to sialic acid receptor assessed as response unit at 2.5 ug/ml by surface plasmon resonance assay; conditions: Influenza A virus (A/WSN/1933(H1N1))
# [8] = target: Hemagglutinin (Influenza A virus) (UniProt B4URE7); assay: Inhibition of influenza A virus A/WSN/33 (H1N1) Hemagglutinin 1 binding to sialic acid receptor assessed as response unit at 1.25 ug/ml by surface plasmon resonance assay; conditions: Influenza A virus (A/WSN/1933(H1N1))
# [9] = target: Hemagglutinin (Influenza A virus) (UniProt B4URE7); assay: Inhibition of influenza A virus A/WSN/33 (H1N1) Hemagglutinin transfected in Human HeLa cells assessed as polykaryon formation at 100 uM after 15 mins by microscopy; type: cell-based; conditions: Influenza A virus (A/WSN/1933(H1N1))
# [10] = test system: Influenza A virus (A/WSN/1933(H1N1)); assay: Inhibition of influenza A virus A/WSN/33 (H1N1) […] binding to sialic acid receptor by surface Plasmon resonance assay
# MDCK [11] = assay: Antiviral activity against influenza A virus A/WSN/33 (H1N1) infected in MDCK cells assessed as inhibition of plaque formation for 1 hr at 4 degC; type: functional, cell-based; conditions: Influenza A virus (A/WSN/1933(H1N1))
# [12] = Binding affinity to influenza A virus A/WSN/33 (H1N1) Hemagglutinin 1 binding to sialic acid receptor by surface plasmon resonance assay; parameters: species or system Influenza A virus (A/WSN/1933(H1N1))
# MDCK [13] = assay: as §1; type: functional, cell-based; conditions: Influenza A virus (A/WSN/1933(H1N1))
# MDCK [14] = assay: Antiviral activity against influenza A virus A/WSN/33 (H1N1) infected in MDCK cells assessed as nucleoprotein level in infected cells at […] progeny virion release step at 100 uM by Time-of-addition experiment; type: functional, cell-based; conditions: Influenza A virus (A/WSN/1933(H1N1))
# [15] = test system: Influenza A virus (A/WSN/1933(H1N1)); assay: Inhibition of influenza A virus A/WSN/33 (H1N1) Hemagglutinin 1 binding to sialic acid receptor assessed as response unit at 20 ug/ml by surface plasmon resonance assay
# [16] = test system: Influenza A virus (A/WSN/1933(H1N1)); assay: Inhibition of influenza A virus A/WSN/33 (H1N1) Hemagglutinin 1 binding to sialic acid receptor assessed as response unit at 10 ug/ml by surface plasmon resonance assay
# MDCK [17] = assay: Antiviral activity against influenza A virus A/WSN/33 (H1N1) infected in MDCK cells assessed as nucleoprotein level in infected cells at 0 to 2 hrs virus entry step at 100 uM by Time-of-addition experiment; type: functional, cell-based; conditions: Influenza A virus (A/WSN/1933(H1N1))
# [18] = test system: Influenza A virus (A/WSN/1933(H1N1)); assay: Inhibition of influenza A virus A/WSN/33 (H1N1)-induced aggregation of chicken erythrocytes after 30 mins by Hemagglutination inhibition assay; type: functional
# MDCK [19] = assay: Antiviral activity against influenza A virus A/WSN/33 (H1N1) infected in MDCK cells assessed as nucleoprotein level in infected cells at 2 to 8 hrs viral genome replication and translation step at 100 uM by Time-of-addition experiment; type: functional, cell-based; conditions: Influenza A virus (A/WSN/1933(H1N1))
SMILES,inhibition at 100 µM [1] [%],CC50 at 40 h [2] [µM],also measured
C=CC(C)(C)n1cc(C[C@@H]2NC(=O)[C@H](C)NC2=O)c2ccccc21,17.9,> 200,
C=CC(C)(C)c1[nH]c2c(CC=C(C)C)cc(CC=C(C)C)cc2c1C[C@@H]1NC(=O)[C@H](C)NC1=O [ECHINULIN],13,> 200,
C=CC(C)(C)c1[nH]c2ccc(C[C@H](O)C(C)(C)OC)cc2c1/C=c1\[nH]c(=O)c(=C)[nH]c1=O,5,> 200,
C=CC(C)(C)c1[nH]c2ccccc2c1C[C@@H]1NC(=O)[C@H](C)NC1=O [PREECHINULIN],14.9,> 200,
C=CC(C)(C)c1[nH]c2ccccc2c1/C=C1\NC(=O)[C@@](C)(OC)NC1=O,82.4,> 200,IC50 [3]: 68.8 µM
CCOC(=O)C1=C[C@@H](OC(CC)CC)[C@H](NC(C)=O)[C@@H](N)C1 [OSELTAMIVIR],,> 200,IC50 [3]: 46.5 µM; IC50 [4]: 15 µM
CC(C)=CCn1cc(C[C@@H]2NC(=O)[C@H](C)NC2=O)c2ccccc21,25.4,> 200,
C=CC(C)(C)c1[nH]c2c(C[C@H](O)C(C)(C)OC)cccc2c1/C=C1\NC(=O)[C@H](C)NC1=O,15.6,> 200,
NC(=O)c1ncn([C@@H]2O[C@H](CO)[C@@H](O)[C@H]2O)n1 [RIBAVIRIN],,> 200,
C=CC(C)(C)c1[nH]c2ccccc2c1/C=C1\NC(=O)[C@H](C)NC1=O [NEOECHINULIN A],,,Kd (Hemagglutinin): 98 µM; Activity [5]: 26.5; Activity [6]: 1; Activity [7]: 12.3; Activity [8]: 4.5
C=CC(C)(C)c1[nH]c2ccccc2c1C(OC)[C@@H]1NC(=O)[C@H](C)NC1=O (stereo not given in full),18.3,> 200,
C=CC(C)(C)c1[nH]c2c(C[C@H](O)C(C)(C)O)cccc2c1/C=C1\NC(=O)[C@H](C)NC1=O,15.1,> 200,
C=CC(C)(C)c1[nH]c2ccccc2c1/C=c1\[nH]c(=O)c(=C)[nH]c1=O [NEOECHINULIN B],70.5,> 200,Kd (Hemagglutinin): 32 µM; Activity [9]: inactive; IC50 [3]: 27.4 µM; Activity [5]: 8.9; Activity [10]: Active; inhibition (MDCK [11]): Dose-dependent effect; Kd [12]: 451 µM; Activity [6]: -3.9; inhibition (MDCK [13]): Dose-dependent effect; inhibition (MDCK [14]): inactive; Activity [15]: 66.9; Activity [7]: 0.8; Activity [16]: 27.7; Activity (MDCK [17]): Active; Activity [8]: -4; inhibition [18]: Dose-dependent effect; inhibition (MDCK [19]): inactive
C=CC(C)(C)c1[nH]c2ccccc2c1/C=C1\NC(=O)[C@@](CO)(OC)NC1=O,14.3,> 200,
C=CC(C)(C)c1[nH]c2ccc(C[C@H](OC(C)=O)C(C)(C)O)cc2c1/C=C1\NC(=O)[C@H](C)NC1=O,2.5,> 200,
C=CC(C)(C)c1[nH]c2c(CC=C(C)C)cccc2c1/C=c1\[nH]c(=O)c(=C)[nH]c1=O,100,> 200,IC50 [3]: 51.4 µM
C[C@@H]1NC(=O)[C@H](Cc2c[nH]c3ccccc23)NC1=O,2.31,> 200,
C=CC(C)(C)c1[nH]c2ccccc2c1C(O)[C@@H]1NC(=O)[C@H](C)NC1=O (stereo not given in full),3.38,> 200,
C=CC(C)(C)c1[nH]c2ccc(C[C@H](O)C(C)(C)OC)cc2c1/C=C1\NC(=O)[C@H](C)NC1=O,15.2,> 200,
C=CC(C)(C)c1[nH]c2ccccc2c1/C=C1\NC(=O)[C@H](CO)NC1=O [CRISTATUMIN A],20.6,> 200,
C=CC(C)(C)c1[nH]c2ccc(C[C@H](OC(C)=O)C(C)(C)O)cc2c1C[C@@H]1NC(=O)[C@H](C)NC1=O,3.48,> 200,
NC12CC3CC(CC(C3)C1)C2 [AMANTADINE],,> 200,
C=CC(C)(C)c1[nH]c2ccc(C[C@H](O)C(C)(C)O)cc2c1/C=C1\NC(=O)C(=O)NC1=O,6.45,> 200,
C=CC(C)(C)c1[nH]c2ccccc2c1C[C@@H]1NC(=O)[C@H](CO)NC1=O,13,> 200,
CCOC(=O)c1c(CSc2ccccc2)n(C)c2cc(Br)c(O)c(CN(C)C)c12 [UMIFENOVIR],,,Activity [5]: 20.7; Kd [12]: 0.081 µM; Activity [6]: -1.8; Activity [15]: 102; Activity [7]: 7.5; Activity [16]: 48.7; Activity [8]: 1.2
C=CC(C)(C)c1[nH]c2ccc(CC=C(C)C)cc2c1/C=C1\NC(=O)[C@H](C)NC1=O [ISOECHINULIN A],77.6,> 200,IC50 [3]: 42.7 µM
C=CC(C)(C)c1[nH]c2ccccc2c1/C=C1\NC(=O)C(=O)NC1=O,6.69,> 200,
C=CC(C)(C)c1[nH]c2ccc(C[C@H](O)C(C)(C)OC)cc2c1C[C@@H]1NC(=O)[C@H](C)NC1=O,5.69,> 200,
COc1cc(/C=C/C(=O)CC(=O)/C=C/c2ccc(O)c(OC)c2)ccc1O [CURCUMIN],,,Activity [5]: 16.1; Kd [12]: 507 µM; Activity [6]: 0.8; Activity [15]: 78.8; Activity [7]: 6.8; Activity [16]: 36.4; Activity [8]: 2.7
